From patent publication US10294229B2, “Heteroaryl substituted aminopyridine compounds” (BRISTOL-MYERS SQUIBB COMPANY, priority 2015, dated 2019)
pEC50, pIC50: −log10 of the molar value.

Experiments:
[1] = Caco-2 Permeability Assay; format: in vitro ADME; conditions: human, Caco-2, test compound 3 μM
Method in brief: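 Bidirectional permeability measured over 2 h at 37° C, compound dosed at 3 μM in the donor compartment (apical for absorptive, basolateral for secretive) with plain buffer as receiver.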

IRAK4 = IRAK4 (Homo sapiens (Human), UniProt Q9NWZ3); experiment: IRAK4 Inhibition Assay; format: biochemical; conditions: ATP 500 μM; IRAK4 0.6 nM
IRAK4, sequence (Q9NWZ3 whole entry, species assumed): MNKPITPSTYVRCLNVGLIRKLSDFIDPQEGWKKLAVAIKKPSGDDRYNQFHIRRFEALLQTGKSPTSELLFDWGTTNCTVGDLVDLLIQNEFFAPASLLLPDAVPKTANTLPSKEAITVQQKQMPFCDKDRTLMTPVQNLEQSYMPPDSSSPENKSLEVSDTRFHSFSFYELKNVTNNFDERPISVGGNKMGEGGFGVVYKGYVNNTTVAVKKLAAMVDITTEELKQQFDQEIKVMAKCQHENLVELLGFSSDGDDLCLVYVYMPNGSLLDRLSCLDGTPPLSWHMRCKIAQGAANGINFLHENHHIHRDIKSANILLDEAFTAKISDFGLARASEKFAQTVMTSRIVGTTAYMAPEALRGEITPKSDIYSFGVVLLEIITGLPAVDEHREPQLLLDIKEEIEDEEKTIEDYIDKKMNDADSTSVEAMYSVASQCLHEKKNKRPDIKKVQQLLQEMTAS
Method in brief: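 Mobility-shift kinase assay: 0.6 nM IRAK4, 500 μM ATP, 1.5 μM fluorescent peptide, 60 min, room temperature. Percent inhibition was normalised between enzyme-free and DMSO-only wells.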

[2] = test system: Human whole blood stimulated with a TLR2 agonist (lipoteichoic acid), IL-6 levels; experiment: IRAK4 Whole Blood Assay; format: cell-based; conditions: Homo sapiens, lipoteichoic acid 10 μg/mL
Method in brief: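 IL-6 was quantified by cytometric bead assay in supernatants of human blood (ACD-A) stimulated for 5 h with lipoteichoic acid at 10 μg/mL final. Compound exposure preceded stimulation for 60 min at 37 °C, 5% CO2.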

Row | Structure (SMILES) | Papp at 2 h, 3 µM [1] [×10⁻⁶ cm/s] | pIC50 (IRAK4) | pEC50 [2]
1 | CC(=O)N1CCC[C@@H]1c1cc(-c2cnc(-n3ncc4cc(C#N)cnc43)cc2NC(C)C)on1 [Example 417, (R)-1-(5-(3-(1-acetylpyrrolidin-2-yl)isoxazol-5-yl)-4-(isopropylamino)pyridin-2-yl)-1H-pyrazolo [3,4-b]pyridine-5-carbonitrile] | 29.2 | 8.15 | 6.47
2 | CC(C)Nc1cc(-n2ncc3cc(C#N)cnc32)ncc1-n1cc(CCCCO)nn1 [Example 311, 1-(5-(4-(4-hydroxybutyl)-1H-1,2,3-triazol-1-yl)-4-(isopropylamino)pyridin-2-yl)-1H-pyrazolo [3,4-b]pyridine-5-carbonitrile] | 6.4 | 8.22 | 6.92
3 | CC(C)Nc1cc(-n2ncc3cc(C#N)cnc32)ncc1-c1cn([C@@H]2CCN(S(C)(=O)=O)C[C@H]2F)nn1 (single isomer, unassigned) [Example 210, 1-(5-(1-((trans)-3-fluoro-1-(methylsulfonyl)piperidin-4-yl)-1H-1,2,3-triazol-4-yl)-4-(isopropylamino)pyridin-2-yl)-1H-pyrazolo[3,4-b]pyridine-5-carbonitrile] | 4.3 | 8.70 | 6.29
4 | N#Cc1cnc2c(cnn2-c2cc(NC3CC3)c(-c3cn(CCO)nn3)cn2)c1 [Example 14, 1-(4-(cyclopropylamino)-5-(1-(2-hydroxyethyl)-1H-1,2,3-triazol-4-yl)pyridin-2-yl)-1H-pyrazolo[3,4-b]pyridine-5-carbonitrile] | 4.1 | 8.52 | 6.31
5 | CC(=O)N1CC[C@H]1c1cc(-c2cnc(-n3ncc4cc(C#N)cnc43)cc2NC(C)C)on1 [Example 427, (S)-1-(5-(3-(1-acetylazetidin-2-yl)isoxazol-5-yl)-4-(isopropylamino)pyridin-2-yl)-1H-pyrazolo[3,4-b]pyridine-5-carbonitrile] | 8 | 7.82 | 6.60
6 | CC(=O)N1CCC[C@@H](c2cc(-c3cnc(-n4ncc5cc(C#N)cnc54)cc3NC(C)C)on2)C1 [Example 407, (R)-1-(5-(3-(1-acetylpiperidin-3-yl)isoxazol-5-yl)-4-(isopropylamino)pyridin-2-yl)-1H-pyrazolo[3,4-b]pyridine-5-carbonitrile] | 25 | 9.00 | 6.54
7 | CC(C)Nc1cc(-n2ncc3cc(C#N)c(N)nc32)ncc1-c1cn(C2CCCCC2)nn1 [Example 25, 6-amino-1-(5-(1-cyclohexyl-1H-1,2,3-triazol-4-yl)-4-(isopropylamino)pyridin-2-yl)-1H-pyrazolo[3,4-b]pyridine-5-carbonitrile] | 4.9 | 8.70 | 6.10
8 | CC(C)Nc1cc(-n2ncc3cc(C#N)cnc32)ncc1-c1cn(CC(C)(C)O)nn1 [Example 63, 1-(5-(1-(2-hydroxy-2-methylpropyl)-1H-1,2,3-triazol-4-yl)-4-(isopropylamino)pyridin-2-yl)-1H-pyrazolo[3,4-b]pyridine-5-carbonitrile] | 7.8 | 7.85 | 6.05
9 | CC(C)(O)CCc1cn(-c2cnc(-n3ncc4cc(C#N)cnc43)cc2NC2COCC2F)nn1 (stereo not drawn) [Example 379, 1-(4-((4-fluorotetrahydrofuran-3-yl)amino)-5-(4-(3-hydroxy-3-methylbutyl)-1H-1,2,3-triazol-1-yl)pyridin-2-yl)-1H-pyrazolo [3,4-b]pyridine-5-carbonitrile] | < 1.5 | 8.30 | 6.85
10 | CC(C)Nc1cc(-n2ncc3cc(C#N)cnc32)ncc1-c1cn([C@H]2CCN(S(C)(=O)=O)C[C@H]2O)nn1 [Example 181, 1-(5-(1-((3R,4S)-3-hydroxy-1-(methylsulfonyl)piperidin-4-yl)-1H-1,2,3-triazol-4-yl)-4-(isopropylamino)pyridin-2-yl)-1H-pyrazolo[3,4-b]pyridine-5-carbonitrile] | < 1.5 | 8.15 | 6.40
11 | CC(C)Nc1cc(-n2ncc3cc(C#N)cnc32)ncc1-c1cn(CC2CC2)nn1 [Example 16, 1-(5-(1-(cyclopropylmethyl)-1H-1,2,3-triazol-4-yl)-4-(isopropylamino)pyridin-2-yl)-1H-pyrazolo[3,4-b]pyridine-5-carbonitrile] | 14 | 8.30 | 6.07
12 | CCCc1cn(-c2cnc(-n3ncc4cc(C#N)c(N)nc43)cc2NC(C)C)nn1 [Example 280, 6-amino-1-(4-(isopropylamino)-5-(4-propyl-1H-1,2,3-triazol-1-yl)pyridin-2-yl)-1H-pyrazolo[3,4-b]pyridine-5-carbonitrile] | 27.6 | 8.52 | 6.64
13 | CC(C)Nc1cc(-n2ncc3cc(C#N)cnc32)ncc1-c1cn([C@H]2CCN(C(=O)C(C)(C)C)C[C@H]2O)nn1 [Example 179, 1-(5-(1-((3R,4S)-3-hydroxy-1-pivaloylpiperidin-4-yl)-1H-1,2,3-triazol-4-yl)-4-(isopropylamino)pyridin-2-yl)-1H-pyrazolo[3,4-b]pyridine-5-carbonitrile] | 1.8 | 8.15 | 6.17
14 | CC(=O)N1CC[C@@H](c2cc(-c3cnc(-n4ncc5cc(C#N)cnc54)cc3NC(C)C)on2)C1 [Example 406, (R)-1-(5-(3-(1-acetylpyrrolidin-3-yl)isoxazol-5-yl)-4-(isopropylamino)pyridin-2-yl)-1H-pyrazolo [3,4-b]pyridine-5-carbonitrile] | 16.3 | 8.52 | 6.33
15 | N#Cc1cnc2c(cnn2-c2cc(NC3CC3)c(-n3cc(C4CCOCC4)nn3)cn2)c1 [Example 348, 1-(4-(cyclopropylamino)-5-(4-(tetrahydro-2H-pyran-4-yl)-1H-1,2,3-triazol-1-yl)pyridin-2-yl)-1H-pyrazolo[3,4-b]pyridine-5-carbonitrile] | 41 | 7.89 | 6.77
16 | CC(=O)N1CC[C@@H](n2cc(-c3cnc(-n4ncc5cc(C#N)cnc54)cc3NC(C)C)nn2)[C@@H](O)C1 [Example 191, 1-(5-(1-((3S,4R)-1-acetyl-3-hydroxypiperidin-4-yl)-1H-1,2,3-triazol-4-yl)-4-(isopropylamino)pyridin-2-yl)-1H-pyrazolo[3,4-b]pyridine-5-carbonitrile] | < 1.5 | 7.80 | 6.41
17 | CCCc1cn(-c2cnc(-n3ncc4cc(C#N)cnc43)cc2NC(C)C)nn1 [Example 263, 1-(4-(isopropylamino)-5-(4-propyl-1H-1,2,3-triazol-1-yl)pyridin-2-yl)-1H-pyrazolo[3,4-b]pyridine-5-carbonitrile] | 7.8 | 7.82 | 6.48
18 | CC(C)Nc1cc(-n2ncc3cc(C#N)cnc32)ncc1-c1cn(CCCCF)nn1 [Example 48, 1-(5-(1-(4-fluorobutyl)-1H-1,2,3-triazol-4-yl)-4-(isopropylamino)pyridin-2-yl)-1H-pyrazolo[3,4-b]pyridine-5-carbonitrile] | 30 | 8.40 | 6.04
19 | CC(C)Nc1cc(-n2ncc3cc(C#N)cnc32)ncc1-c1cn(CCc2cccnc2)nn1 [Example 119, 1-(4-(isopropylamino)-5-(1-(2-(pyridin-3-yl)ethyl)-1H-1,2,3-triazol-4-yl)pyridin-2-yl)-1H-pyrazolo[3,4-b]pyridine-5-carbonitrile] | 5 | 8.70 | 6.37
20 | CC(C)Nc1cc(-n2ncc3cc(C#N)cnc32)ncc1-c1cc(C(CO)CO)no1 [Example 399, 1-(5-(3-(1,3-dihydroxypropan-2-yl)isoxazol-5-yl)-4-(isopropylamino)pyridin-2-yl)-1H-pyrazolo[3,4-b]pyridine-5-carbonitrile] | < 1.5 | 8.00 | 6.85
21 | CC(C)(O)CCc1cn(-c2cnc(-n3ncc4cc(C#N)cnc43)cc2NCCCF)nn1 [Example 370, 1-(4-((3-fluoropropyl)amino)-5-(4-(3-hydroxy-3-methylbutyl)-1H-1,2,3-triazol-1-yl)pyridin-2-yl)-1H-pyrazolo[3,4-b]pyridine-5-carbonitrile] | 2.5 | 8.05 | 6.55
22 | CCNc1cc(-n2ncc3cc(C#N)cnc32)ncc1C1=NOC(CCC(C)(C)O)C1 (stereo not drawn) [Example 440, 1-(4-(ethylamino)-5-(5-(3-hydroxy-3-methylbutyl)-4,5-dihydroisoxazol-3-yl)pyridin-2-yl)-1H-pyrazolo[3,4-b]pyridine-5-carbonitrile] | 31.6 | 8.40 | 6.55
23 | CC(=O)N(C)CCCc1cc(-c2cnc(-n3ncc4cc(C#N)cnc43)cc2NC(C)C)on1 [Example 415, N-(3-(5-(6-(5-cyano-1H-pyrazolo[3,4-b]pyridin-1-yl)-4-(isopropylamino)pyridin-3-yl)isoxazol-3-yl)propyl)-N-methylacetamide] | 18.3 | 8.52 | 6.59
24 | CC(C)Nc1cc(-n2ncc3cnc(N)nc32)ncc1-n1cc(CCC(C)(C)F)nn1 [Example 351, 1-(5-(4-(3-fluoro-3-methylbutyl)-1H-1,2,3-triazol-1-yl)-4-(isopropylamino)pyridin-2-yl)-1H-pyrazolo[3,4-d]pyrimidin-6-amine] | 30.6 | 8.40 | 6.43
